The structures appear in SMILES notation.

The first assay relates to NCI-H1793. Nature of the assay: relative viability (nuclei count vs DMSO), 5 days (fraction); higher = more cells survive. To be noted: first compound 0.08 µM. The method in brief: (§1)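 Cells from lung cancer lines were seeded into 1536-well plates and, one day later, dosed by pin tool. Treatments were either a single drug or a fixed dose of an anchor drug with five library-drug doses (not always all listed) in √10 steps. After 5 days, nuclei were stained in a one-step fixation (final 0.05% Triton X-100, 1% formaldehyde, 1 ug/ml Hoechst) and counted on 4× images, and relative viability is the treated-to-vehicle nuclei ratio, as the median of duplicate plates.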
Molecule `CCCCCCCCCCCC1=C(O)C(=O)C=C(O)C1=O` [Embelin] + O=C(CCCCCCC(=O)Nc1ccccc1)NO [Vorinostat] (partner 1 µM) displayed a relative viability of 0.728.

Molecule `CCCCCCCCCCCC1=C(O)C(=O)C=C(O)C1=O` [Embelin] + O=C(c1cc(Cc2n[nH]c(=O)c3ccccc23)ccc1F)N1CCN(C(=O)C2CC2)CC1 [Olaparib] (partner 8 µM) displayed a relative viability of 0.993.

Take `CCCCCCCCCCCC1=C(O)C(=O)C=C(O)C1=O` [Embelin] + Cc1cc(Nc2cc(N3CCN(C)CC3)nc(Sc3ccc(NC(=O)C4CC4)cc3)n2)n[nH]1 [Tozasertib] (partner 0.1 µM): the relative viability stood at 0.399.

Turning to `CCCCCCCCCCCC1=C(O)C(=O)C=C(O)C1=O` [Embelin] + Nc1ncn([C@H]2C[C@H](O)[C@@H](CO)O2)c(=O)n1 [Decitabine] (partner 2 µM), the relative viability stood at 0.586.

On to `CCCCCCCCCCCC1=C(O)C(=O)C=C(O)C1=O` [Embelin] + CC(=O)c1c(C)c2cnc(Nc3ccc(N4CCNCC4)cn3)nc2n(C2CCCC2)c1=O [Palbociclib] (partner 0.5 µM), for which the relative viability was 0.317.

Still in this assay, the particulars now being: first compound 0.8 µM.
In turn, `CCCCCCCCCCCC1=C(O)C(=O)C=C(O)C1=O` [Embelin] + O=C(CCCCCCC(=O)Nc1ccccc1)NO [Vorinostat] (partner 1 µM) showed a relative viability of 0.842.

Take `CCCCCCCCCCCC1=C(O)C(=O)C=C(O)C1=O` [Embelin] + O=C(c1cc(Cc2n[nH]c(=O)c3ccccc23)ccc1F)N1CCN(C(=O)C2CC2)CC1 [Olaparib] (partner 8 µM): the relative viability was found to be 1.03.

`CCCCCCCCCCCC1=C(O)C(=O)C=C(O)C1=O` [Embelin] + Cc1cc(Nc2cc(N3CCN(C)CC3)nc(Sc3ccc(NC(=O)C4CC4)cc3)n2)n[nH]1 [Tozasertib] (partner 0.1 µM): the relative viability worked out at 0.44.

Molecule `CCCCCCCCCCCC1=C(O)C(=O)C=C(O)C1=O` [Embelin] + Nc1ncn([C@H]2C[C@H](O)[C@@H](CO)O2)c(=O)n1 [Decitabine] (partner 2 µM) showed a relative viability of 0.625.

Turning to `CCCCCCCCCCCC1=C(O)C(=O)C=C(O)C1=O` [Embelin] + CC(=O)c1c(C)c2cnc(Nc3ccc(N4CCNCC4)cn3)nc2n(C2CCCC2)c1=O [Palbociclib] (partner 0.5 µM), the relative viability was 0.363.

The same assay, now with this note: first compound 2.53 µM.
In turn, `CCCCCCCCCCCC1=C(O)C(=O)C=C(O)C1=O` [Embelin] + O=C(CCCCCCC(=O)Nc1ccccc1)NO [Vorinostat] (partner 1 µM) displayed a relative viability of 0.754.

For `CCCCCCCCCCCC1=C(O)C(=O)C=C(O)C1=O` [Embelin] + O=C(c1cc(Cc2n[nH]c(=O)c3ccccc23)ccc1F)N1CCN(C(=O)C2CC2)CC1 [Olaparib] (partner 8 µM), the relative viability was 1.12.

In turn, `CCCCCCCCCCCC1=C(O)C(=O)C=C(O)C1=O` [Embelin] + Cc1cc(Nc2cc(N3CCN(C)CC3)nc(Sc3ccc(NC(=O)C4CC4)cc3)n2)n[nH]1 [Tozasertib] (partner 0.1 µM) yielded a relative viability of 0.4.

In turn, `CCCCCCCCCCCC1=C(O)C(=O)C=C(O)C1=O` [Embelin] + Nc1ncn([C@H]2C[C@H](O)[C@@H](CO)O2)c(=O)n1 [Decitabine] (partner 2 µM) showed a relative viability of 0.505.

For `CCCCCCCCCCCC1=C(O)C(=O)C=C(O)C1=O` [Embelin] + CC(=O)c1c(C)c2cnc(Nc3ccc(N4CCNCC4)cn3)nc2n(C2CCCC2)c1=O [Palbociclib] (partner 0.5 µM), the relative viability was 0.411.

The same assay, now with this note: first compound 8 µM.
The molecule `CCCCCCCCCCCC1=C(O)C(=O)C=C(O)C1=O` [Embelin] + O=C(CCCCCCC(=O)Nc1ccccc1)NO [Vorinostat] (partner 1 µM) displayed a relative viability of 0.439.

Consider `CCCCCCCCCCCC1=C(O)C(=O)C=C(O)C1=O` [Embelin] + O=C(c1cc(Cc2n[nH]c(=O)c3ccccc23)ccc1F)N1CCN(C(=O)C2CC2)CC1 [Olaparib] (partner 8 µM), for which the relative viability worked out at 1.05.

`CCCCCCCCCCCC1=C(O)C(=O)C=C(O)C1=O` [Embelin] + Cc1cc(Nc2cc(N3CCN(C)CC3)nc(Sc3ccc(NC(=O)C4CC4)cc3)n2)n[nH]1 [Tozasertib] (partner 0.1 µM) returned a relative viability of 0.327.

Molecule `CCCCCCCCCCCC1=C(O)C(=O)C=C(O)C1=O` [Embelin] + Nc1ncn([C@H]2C[C@H](O)[C@@H](CO)O2)c(=O)n1 [Decitabine] (partner 2 µM) gave a relative viability of 0.549.

`CCCCCCCCCCCC1=C(O)C(=O)C=C(O)C1=O` [Embelin] + CC(=O)c1c(C)c2cnc(Nc3ccc(N4CCNCC4)cn3)nc2n(C2CCCC2)c1=O [Palbociclib] (partner 0.5 µM) had a relative viability of 0.363.

The subject of another assay is NCI-H1944. The assay is described as above. The note with it: first compound 0.08 µM. A digest of the protocol: as §1
Molecule `CCCCCCCCCCCC1=C(O)C(=O)C=C(O)C1=O` [Embelin] + O=C(CCCCCCC(=O)Nc1ccccc1)NO [Vorinostat] (partner 1 µM) displayed a relative viability of 0.577.

`CCCCCCCCCCCC1=C(O)C(=O)C=C(O)C1=O` [Embelin] + O=C(c1cc(Cc2n[nH]c(=O)c3ccccc23)ccc1F)N1CCN(C(=O)C2CC2)CC1 [Olaparib] (partner 8 µM) came in with a relative viability of 0.402.

`CCCCCCCCCCCC1=C(O)C(=O)C=C(O)C1=O` [Embelin] + Cc1cc(Nc2cc(N3CCN(C)CC3)nc(Sc3ccc(NC(=O)C4CC4)cc3)n2)n[nH]1 [Tozasertib] (partner 0.1 µM) showed a relative viability of 0.262.

Turning to `CCCCCCCCCCCC1=C(O)C(=O)C=C(O)C1=O` [Embelin] + Nc1ncn([C@H]2C[C@H](O)[C@@H](CO)O2)c(=O)n1 [Decitabine] (partner 2 µM), the relative viability worked out at 0.436.

Consider `CCCCCCCCCCCC1=C(O)C(=O)C=C(O)C1=O` [Embelin] + CC(=O)c1c(C)c2cnc(Nc3ccc(N4CCNCC4)cn3)nc2n(C2CCCC2)c1=O [Palbociclib] (partner 0.5 µM), for which the relative viability is 0.346.

Staying with this assay, now noted: first compound 0.8 µM.
With `CCCCCCCCCCCC1=C(O)C(=O)C=C(O)C1=O` [Embelin] + O=C(CCCCCCC(=O)Nc1ccccc1)NO [Vorinostat] (partner 1 µM), the relative viability came out at 0.643.

The molecule `CCCCCCCCCCCC1=C(O)C(=O)C=C(O)C1=O` [Embelin] + O=C(c1cc(Cc2n[nH]c(=O)c3ccccc23)ccc1F)N1CCN(C(=O)C2CC2)CC1 [Olaparib] (partner 8 µM) gave a relative viability of 0.474.

`CCCCCCCCCCCC1=C(O)C(=O)C=C(O)C1=O` [Embelin] + Cc1cc(Nc2cc(N3CCN(C)CC3)nc(Sc3ccc(NC(=O)C4CC4)cc3)n2)n[nH]1 [Tozasertib] (partner 0.1 µM) yielded a relative viability of 0.261.

For the molecule `CCCCCCCCCCCC1=C(O)C(=O)C=C(O)C1=O` [Embelin] + Nc1ncn([C@H]2C[C@H](O)[C@@H](CO)O2)c(=O)n1 [Decitabine] (partner 2 µM), the relative viability is 0.406.

`CCCCCCCCCCCC1=C(O)C(=O)C=C(O)C1=O` [Embelin] + CC(=O)c1c(C)c2cnc(Nc3ccc(N4CCNCC4)cn3)nc2n(C2CCCC2)c1=O [Palbociclib] (partner 0.5 µM) displayed a relative viability of 0.405.

For the origin of these results see the supplement of paper PMC10307832.
